{
  "source": "paper PMC6096457",
  "about": "“Modified translationally controlled tumor protein-derived protein transduction domain enhances nasal delivery of exendin-4 as shown with insulin” (Drug Delivery, 2018)",
  "experiment": "Visual inspection for cloudiness (turbidity) and precipitation",
  "assay_type": "physicochemical",
  "conditions": "mixtures in 10 mM phosphate buffer pH 6.4",
  "source_text": "All exendin-4/PTD mixtures were clear.",
  "data": [
    {"sequence": "MIIFRLLAYHKK [TCTP-PTD 13M3, substitution S9Y of TCTP-PTD 13M2]", "values": [
      {"measurement": "cloudiness (turbidity) and precipitation", "value": "did not form any precipitations"}
    ]}
  ]
}
